Assay results reported in the supplement of paper PMC11208160.

Test: recombinant barcode read abundance after kanamycin selection (control-corrected) (log10(CPM+1)); higher = more efficient recombination; sequences stand for … in AGTGCAGAGAAAATCGGCCAGTTTTCTCTGCCTGCAGTCCGCATGCCGT…ATTTATGCAGCGGACTGCCTTTCTCCCAAAGTGATAAACCGGACAGTATCATGGACCGGTTTTCCCGGTAATCCGTATTTGCAAGGTTGGTTTCACT; site = the 11-nt target
Outline: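 Targets were screened in pooled form in E. coli against IS621 bridge RNA target-binding loops. Recombination efficiency is based on barcode counts at recombinant junctions in counts per million, averaged and corrected for the control. Numbers are shown as log10(CPM+1), with duplicate plates on chloramphenicol/ampicillin LB agar (control) or chloramphenicol/ampicillin/kanamycin with 0.1 mM IPTG.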

Sequence | recombinant barcode read abundance (log10)
AGGCGGGATTGGGTTCTAACCTGTTGCGGAT [AGGCGGGCTCC_LTGcore_AT_RTGcore_AT] (site AGGCGGGCTCC) (LTG core: AT, RTG core: AT) | 0.178
AGGCGGGCTTGGGTTCTAACCTGTTGCGGCA [AGGCGGGCTCC_LTGcore_CT_RTGcore_TG] (site AGGCGGGCTCC) (LTG core: CT, RTG core: TG) | 0.0958
AGGCGGGCTTGGGTTCTAACCTGTTGCGGCT [AGGCGGGCTCC_LTGcore_CT_RTGcore_AG] (site AGGCGGGCTCC) (LTG core: CT, RTG core: AG) | 0.172
AGGCGGGCTTGGGTTCTAACCTGTTGCGGTA [AGGCGGGCTCC_LTGcore_CT_RTGcore_TA] (site AGGCGGGCTCC) (LTG core: CT, RTG core: TA) | 0.138
AGGCGGGCTTGGGTTCTAACCTGTTGCGGTG [AGGCGGGCTCC_LTGcore_CT_RTGcore_CA] (site AGGCGGGCTCC) (LTG core: CT, RTG core: CA) | 0.201
AGGCGGGGATGGGTTCTAACCTGTTGCGGAG [AGGCGGGCTCC_LTGcore_GA_RTGcore_CT] (site AGGCGGGCTCC) (LTG core: GA, RTG core: CT) | 0.555
AGGCGGGTCTGGGTTCTAACCTGTTGCGGAG [AGGCGGGCTCC_LTGcore_TC_RTGcore_CT] (site AGGCGGGCTCC) (LTG core: TC, RTG core: CT) | 0.95
AGGCGGGTGTGGGTTCTAACCTGTTGCGGCA [AGGCGGGCTCC_LTGcore_TG_RTGcore_TG] (site AGGCGGGCTCC) (LTG core: TG, RTG core: TG) | 0.0694
AGGCGGTACTGGGTTCTAACCTGTTGCTTGT [AGGCGGTCTAA_LTGcore_AC_RTGcore_AC] (site AGGCGGTCTAA) (LTG core: AC, RTG core: AC) | 0.166
AGGCGGTCATGGGTTCTAACCTGTTGCTTAG [AGGCGGTCTAA_LTGcore_CA_RTGcore_CT] (site AGGCGGTCTAA) (LTG core: CA, RTG core: CT) | 0.322
AGGCGGTCGTGGGTTCTAACCTGTTGCTTCG [AGGCGGTCTAA_LTGcore_CG_RTGcore_CG] (site AGGCGGTCTAA) (LTG core: CG, RTG core: CG) | 0.228
AGGCGGTCTTGGGTTCTAACCTGTTGCTTAA [AGGCGGTCTAA_LTGcore_CT_RTGcore_TT] (site AGGCGGTCTAA) (LTG core: CT, RTG core: TT) | 0.0737
AGGCGGTCTTGGGTTCTAACCTGTTGCTTGA [AGGCGGTCTAA_LTGcore_CT_RTGcore_TC] (site AGGCGGTCTAA) (LTG core: CT, RTG core: TC) | 0.107
AGGCGGTCTTGGGTTCTAACCTGTTGCTTGC [AGGCGGTCTAA_LTGcore_CT_RTGcore_GC] (site AGGCGGTCTAA) (LTG core: CT, RTG core: GC) | 0.784
AGGCGGTCTTGGGTTCTAACCTGTTGCTTGG [AGGCGGTCTAA_LTGcore_CT_RTGcore_CC] (site AGGCGGTCTAA) (LTG core: CT, RTG core: CC) | 0.244
AGGCGGTGATGGGTTCTAACCTGTTGCTTAG [AGGCGGTCTAA_LTGcore_GA_RTGcore_CT] (site AGGCGGTCTAA) (LTG core: GA, RTG core: CT) | 0.09

Sequence | recombinant barcode read abundance (log10)
AGGCGGTGATGGGTTCTAACCTGTTGCTTTC [AGGCGGTCTAA_LTGcore_GA_RTGcore_GA] (site AGGCGGTCTAA) (LTG core: GA, RTG core: GA) | 0.101
AGTCTTAAATGGGTTCTAACCTGTTGCCAAG [AGTCTTACTTG_LTGcore_AA_RTGcore_CT] (site AGTCTTACTTG) (LTG core: AA, RTG core: CT) | 0.182
AGTCTTACTTGGGTTCTAACCTGTTGCCAAC [AGTCTTACTTG_LTGcore_CT_RTGcore_GT] (site AGTCTTACTTG) (LTG core: CT, RTG core: GT) | 0.0371
AGTCTTACTTGGGTTCTAACCTGTTGCCACT [AGTCTTACTTG_LTGcore_CT_RTGcore_AG] (site AGTCTTACTTG) (LTG core: CT, RTG core: AG) | 0.0729
AGTCTTACTTGGGTTCTAACCTGTTGCCAGT [AGTCTTACTTG_LTGcore_CT_RTGcore_AC] (site AGTCTTACTTG) (LTG core: CT, RTG core: AC) | 0.0396
AGTCTTAGTTGGGTTCTAACCTGTTGCCAAC [AGTCTTACTTG_LTGcore_GT_RTGcore_GT] (site AGTCTTACTTG) (LTG core: GT, RTG core: GT) | 0
AGTCTTATGTGGGTTCTAACCTGTTGCCAAG [AGTCTTACTTG_LTGcore_TG_RTGcore_CT] (site AGTCTTACTTG) (LTG core: TG, RTG core: CT) | 0.0537
AGTCTTATGTGGGTTCTAACCTGTTGCCACA [AGTCTTACTTG_LTGcore_TG_RTGcore_TG] (site AGTCTTACTTG) (LTG core: TG, RTG core: TG) | 0.0473
ATGCTTTAGTGGGTTCTAACCTGTTGCCTCT [ATGCTTTCTAG_LTGcore_AG_RTGcore_AG] (site ATGCTTTCTAG) (LTG core: AG, RTG core: AG) | 0.0908
ATGCTTTATTGGGTTCTAACCTGTTGCCTAT [ATGCTTTCTAG_LTGcore_AT_RTGcore_AT] (site ATGCTTTCTAG) (LTG core: AT, RTG core: AT) | 0.153
ATGCTTTCATGGGTTCTAACCTGTTGCCTAG [ATGCTTTCTAG_LTGcore_CA_RTGcore_CT] (site ATGCTTTCTAG) (LTG core: CA, RTG core: CT) | 0.0483
ATGCTTTCTTGGGTTCTAACCTGTTGCCTCG [ATGCTTTCTAG_LTGcore_CT_RTGcore_CG] (site ATGCTTTCTAG) (LTG core: CT, RTG core: CG) | 0.21
ATGCTTTCTTGGGTTCTAACCTGTTGCCTTA [ATGCTTTCTAG_LTGcore_CT_RTGcore_TA] (site ATGCTTTCTAG) (LTG core: CT, RTG core: TA) | 0.0193
ATGCTTTCTTGGGTTCTAACCTGTTGCCTTT [ATGCTTTCTAG_LTGcore_CT_RTGcore_AA] (site ATGCTTTCTAG) (LTG core: CT, RTG core: AA) | 0.103
ATGCTTTTCTGGGTTCTAACCTGTTGCCTAG [ATGCTTTCTAG_LTGcore_TC_RTGcore_CT] (site ATGCTTTCTAG) (LTG core: TC, RTG core: CT) | 0.439
ATGCTTTTCTGGGTTCTAACCTGTTGCCTGA [ATGCTTTCTAG_LTGcore_TC_RTGcore_TC] (site ATGCTTTCTAG) (LTG core: TC, RTG core: TC) | 0.187
